Data from the supplement of paper PMC11208160.

assay: recombinant barcode read abundance after kanamycin selection (control-corrected) (log10(CPM+1)); higher = more efficient recombination; sequences stand for … in AGTGCAGAGAAAATCGGCCAGTTTTCTCTGCCTGCAGTCCGCATGCCGT…AGATTTATGCAGCGGACTGCCTTTCTCCCAAAGTGATAAACCGGACAGTATCATGGACCGGTTTTCCCGGTAATCCGTATTTGCAAGGTTGGTTTCACT; site = the 11-nt target
Method in brief: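 For this pooled screen, each oligo contained a promoter, a target, a barcode and the J23119-driven first 104 bases of the bridge RNA. Gibson cloning placed it into a vector supplying the remaining 73 bp and a T7-inducible recombinase, and the pool was co-electroporated into E. coli with a donor plasmid. Recombination efficiency is derived from barcode counts per million at recombinant junctions after averaging and control correction, and is expressed on a log scale as log10(CPM+1), with selection on chloramphenicol/ampicillin/kanamycin plus 0.1 mM IPTG against a chloramphenicol/ampicillin LB agar control.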
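Note: IS621 recombinase and bridge RNA in Escherichia coli cells.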

| Sequence | recombinant barcode read abundance (log10) |
| --- | --- |
| CCTAATCCTTGGGTTCTAACCTGTTGCGT (site CCTAAGCCTAC) | 0.22 |
| CCTAATCCTTGGGTTCTAACCTGTTGCGT (site CCTAATCCTAC) | 1.1 |
| CCTACAACTTGGGTTCTAACCTGTTGCCT (site CCTACAACTAG) | 0.313 |
| CCTACAACTTGGGTTCTAACCTGTTGCCT (site CCTACACCTAG) | 0.0313 |
| CCTACAACTTGGGTTCTAACCTGTTGCCT (site CCTACAGCTAG) | 0.138 |
| CCTACAACTTGGGTTCTAACCTGTTGCCT (site CCTACATCTAG) | 0.227 |
| CCTACAGCTTGGGTTCTAACCTGTTGCCT (site CCTACAACTAG) | 0.363 |
| CCTACAGCTTGGGTTCTAACCTGTTGCCT (site CCTACACCTAG) | 0.37 |
| CCTACAGCTTGGGTTCTAACCTGTTGCCT (site CCTACAGCTAG) | 0.532 |
| CCTACAGCTTGGGTTCTAACCTGTTGCCT (site CCTACATCTAG) | 0.0747 |
| CCTACATCTTGGGTTCTAACCTGTTGCTA (site CCTACATCTAT) | 0.177 |
| CCTACATCTTGGGTTCTAACCTGTTGCTA (site CCTACATCTTA) | 0.0332 |
| CCTACGCCTTGGGTTCTAACCTGTTGCCA (site CCTACGCCTTG) | 0.842 |
| CCTACGCCTTGGGTTCTAACCTGTTGCCA (site TTCCGAGCTCT) | 0 |
| CCTACTACTTGGGTTCTAACCTGTTGCCG (site CCTACTACTCG) | 0.0812 |
| CCTACTACTTGGGTTCTAACCTGTTGCCG (site CCTACTCCTCT) | 0.0358 |
| CCTACTCCTTGGGTTCTAACCTGTTGCCT (site CCTACTCCTAG) | 0.281 |
| CCTACTCCTTGGGTTCTAACCTGTTGCCT (site CCTGCTCCTAA) | 0.0634 |
| CCTAGAGCTTGGGTTCTAACCTGTTGCCT (site CCTAGAACTAG) | 0.097 |
| CCTAGAGCTTGGGTTCTAACCTGTTGCCT (site CCTAGACCTAG) | 0.241 |
| CCTAGAGCTTGGGTTCTAACCTGTTGCCT (site CCTAGAGCTAG) | 0.694 |
| CCTAGAGCTTGGGTTCTAACCTGTTGCCT (site CCTAGATCTAG) | 0.0587 |

| Sequence | recombinant barcode read abundance (log10) |
| --- | --- |
| CCTAGATCTTGGGTTCTAACCTGTTGCCT (site CCTAGAACTAG) | 0.107 |
| CCTAGATCTTGGGTTCTAACCTGTTGCCT (site CCTAGACCTAG) | 0.141 |
| CCTAGATCTTGGGTTCTAACCTGTTGCCT (site CCTAGAGCTAG) | 0.0181 |
| CCTAGATCTTGGGTTCTAACCTGTTGCCT (site CCTAGATCTAG) | 0.372 |
| CCTATGTCTTGGGTTCTAACCTGTTGCTA (site ACTATGTCTTG) | 0.0985 |
| CCTATGTCTTGGGTTCTAACCTGTTGCTA (site CCTATGTCTTA) | 0.528 |
| CCTCCCTCTTGGGTTCTAACCTGTTGCTA (site CCTCCCTCTCA) | 0.481 |
| CCTCCCTCTTGGGTTCTAACCTGTTGCTA (site CCTCCCTCTTA) | 1.84 |
| CCTGACACTTGGGTTCTAACCTGTTGCGG (site CCTGACACTCC) | 1.66 |
| CCTGACACTTGGGTTCTAACCTGTTGCGG (site CCTTACACTCC) | 0.232 |
| CCTGGGACTTGGGTTCTAACCTGTTGCGC (site CCTGGGACTAC) | 0.684 |
| CCTGGGACTTGGGTTCTAACCTGTTGCGC (site CCTGGGACTCC) | 0.347 |
| CCTGGGACTTGGGTTCTAACCTGTTGCGC (site CCTGGGACTGC) | 1.24 |
| CCTGGGACTTGGGTTCTAACCTGTTGCGC (site CCTGGGACTTC) | 0.214 |
| CCTGGGACTTGGGTTCTAACCTGTTGCGG (site CCTGGGACTAC) | 0 |
| CCTGGGACTTGGGTTCTAACCTGTTGCGG (site CCTGGGACTCC) | 2.29 |
| CCTGGGACTTGGGTTCTAACCTGTTGCGG (site CCTGGGACTGC) | 0.532 |
| CCTGGGACTTGGGTTCTAACCTGTTGCGG (site CCTGGGACTTC) | 0.474 |
| CCTGGGACTTGGGTTCTAACCTGTTGCGT (site CCTGGGACTAC) | 1.31 |
| CCTGGGACTTGGGTTCTAACCTGTTGCGT (site CCTGGGACTCC) | 0.807 |
| CCTGGGACTTGGGTTCTAACCTGTTGCGT (site CCTGGGACTGC) | 0.178 |
| CCTGGGACTTGGGTTCTAACCTGTTGCGT (site CCTGGGACTTC) | 0.0691 |

| Sequence | recombinant barcode read abundance (log10) |
| --- | --- |
| CCTGTAGCTTGGGTTCTAACCTGTTGCCT (site CCGGTAACTAG) | 0.0829 |
| CCTGTAGCTTGGGTTCTAACCTGTTGCCT (site CCTGTAGCTAG) | 1.13 |
| CCTTAGCCTTGGGTTCTAACCTGTTGCCT (site CCTTACCCTAG) | 0.0511 |
| CCTTAGCCTTGGGTTCTAACCTGTTGCCT (site CCTTAGCCTAG) | 0.385 |
| CCTTCTACTTGGGTTCTAACCTGTTGCTA (site CCTTCTACTAG) | 0.0484 |
| CCTTCTACTTGGGTTCTAACCTGTTGCTA (site CCTTCTACTTA) | 0.392 |
| CCTTGCTCTTGGGTTCTAACCTGTTGCCT (site CCTTGCTCTAG) | 0.317 |
| CCTTGCTCTTGGGTTCTAACCTGTTGCCT (site CCTTGGACTAG) | 0.114 |
| CCTTGGACTTGGGTTCTAACCTGTTGCAA (site CCTTGGACTTT) | 0.546 |
| CCTTGGACTTGGGTTCTAACCTGTTGCAA (site GCTTGGACTCT) | 0.0226 |
| CCTTGGTCTTGGGTTCTAACCTGTTGCCT (site CCTTGGTCTAG) | 0.216 |
| CCTTGGTCTTGGGTTCTAACCTGTTGCCT (site GCTTGGCCTAG) | 0.107 |
| CCTTTCACTTGGGTTCTAACCTGTTGCCT (site CCTATCCCTAG) | 0.029 |
| CCTTTCACTTGGGTTCTAACCTGTTGCCT (site CCTTTCACTAG) | 0.228 |
| CGAATCGCTTGGGTTCTAACCTGTTGCCT (site CGAATCACTAG) | 0.374 |
| CGAATCGCTTGGGTTCTAACCTGTTGCCT (site CGAATCCCTAG) | 0.0216 |
| CGAATCGCTTGGGTTCTAACCTGTTGCCT (site CGAATCGCTAG) | 0.994 |
| CGAATCGCTTGGGTTCTAACCTGTTGCCT (site CGAATCTCTAG) | 0.084 |
| CGAATCTCTTGGGTTCTAACCTGTTGCCT (site CGAATCACTAG) | 0.0112 |
| CGAATCTCTTGGGTTCTAACCTGTTGCCT (site CGAATCCCTAG) | 0.221 |
| CGAATCTCTTGGGTTCTAACCTGTTGCCT (site CGAATCGCTAG) | 0 |
| CGAATCTCTTGGGTTCTAACCTGTTGCCT (site CGAATCTCTAG) | 0.616 |

| Sequence | recombinant barcode read abundance (log10) |
| --- | --- |
| CGAATGTCTTGGGTTCTAACCTGTTGCTG (site CGAATGTCTCA) | 1.2 |
| CGAATGTCTTGGGTTCTAACCTGTTGCTG (site GGTATGTCTCA) | 0.202 |
| CGACTCCCTTGGGTTCTAACCTGTTGCGT (site CGACTCCCTAC) | 1.14 |
| CGACTCCCTTGGGTTCTAACCTGTTGCGT (site GTCAAGTCTGA) | 0.391 |
| CGACTGTCTTGGGTTCTAACCTGTTGCCT (site AAGTACACTCA) | 0.0207 |
| CGACTGTCTTGGGTTCTAACCTGTTGCCT (site CGACTGTCTAG) | 1.92 |
| CGAGAACCTTGGGTTCTAACCTGTTGCCT (site AGAGAACCTAG) | 0.0999 |
| CGAGAACCTTGGGTTCTAACCTGTTGCCT (site CGAGAACCTAG) | 1.67 |
| CGAGAACCTTGGGTTCTAACCTGTTGCCT (site GGAGAACCTAG) | 0.0316 |
| CGAGAACCTTGGGTTCTAACCTGTTGCCT (site TGAGAACCTAG) | 0.12 |
| CGAGCAACTTGGGTTCTAACCTGTTGCTT (site CGAGCAACTAA) | 0.0517 |
| CGAGCAACTTGGGTTCTAACCTGTTGCTT (site CGTGTAACTAA) | 0.181 |
| CGAGCTCCTTGGGTTCTAACCTGTTGCAT (site CGAGCTCCTAA) | 0.0507 |
| CGAGCTCCTTGGGTTCTAACCTGTTGCAT (site CGAGCTCCTAC) | 0.154 |
| CGAGCTCCTTGGGTTCTAACCTGTTGCAT (site CGAGCTCCTAG) | 0.425 |
| CGAGCTCCTTGGGTTCTAACCTGTTGCAT (site CGAGCTCCTAT) | 1.86 |
| CGAGCTCCTTGGGTTCTAACCTGTTGCCC (site CGAGCTCCTGG) | 0.591 |
| CGAGCTCCTTGGGTTCTAACCTGTTGCCC (site GGAGCTCCTTG) | 0.512 |
| CGAGCTCCTTGGGTTCTAACCTGTTGCTT (site CGAGCTCCTAA) | 0.324 |
| CGAGCTCCTTGGGTTCTAACCTGTTGCTT (site CGAGCTCCTAC) | 0.0191 |
